One block for each compound: values may come before it.
Key:
AAK1 [1] = molecular target: T1, AAK1 (Homo sapiens, UniProt Q2M2I8); test: biochemical; details: IC50 for inhibition of AAK1 enzymatic activity, 46 μM ATP (at Km)
Target sequence in this assay (Q2M2I8 27-365): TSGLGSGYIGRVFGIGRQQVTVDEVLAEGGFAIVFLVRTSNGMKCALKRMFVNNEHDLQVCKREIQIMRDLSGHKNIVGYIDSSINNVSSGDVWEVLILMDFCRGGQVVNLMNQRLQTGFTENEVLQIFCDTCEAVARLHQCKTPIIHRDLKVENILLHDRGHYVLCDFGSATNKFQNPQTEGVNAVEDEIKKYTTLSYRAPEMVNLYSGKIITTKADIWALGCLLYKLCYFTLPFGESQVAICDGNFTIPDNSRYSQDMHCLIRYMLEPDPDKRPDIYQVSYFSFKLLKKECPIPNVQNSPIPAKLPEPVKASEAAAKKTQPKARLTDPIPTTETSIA

AAK1 [2] = molecular target: T1, AAK1; test: biochemical; assay type: binding
Target sequence in this assay (Q2M2I8 31-396): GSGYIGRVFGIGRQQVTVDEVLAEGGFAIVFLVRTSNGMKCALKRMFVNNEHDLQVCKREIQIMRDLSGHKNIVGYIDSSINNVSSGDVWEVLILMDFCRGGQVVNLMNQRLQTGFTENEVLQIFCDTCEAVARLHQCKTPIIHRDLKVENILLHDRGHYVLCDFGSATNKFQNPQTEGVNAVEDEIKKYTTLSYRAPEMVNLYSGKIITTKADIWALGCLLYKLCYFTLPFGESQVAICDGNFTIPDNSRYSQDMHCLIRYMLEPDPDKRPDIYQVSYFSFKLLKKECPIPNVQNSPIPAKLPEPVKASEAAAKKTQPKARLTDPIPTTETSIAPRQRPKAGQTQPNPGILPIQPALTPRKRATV

PIP5K1C = PIP5K1C (Homo sapiens, UniProt O60331); test: PIP5K1C enzyme assay, ADP-Glo format; assay type: biochemical
phospho-AP2M1 (T156) = test: Western blot of phospho-AP2M1; assay type: cell-based, human; details: HT1080 cells, 1 μM, without WNT3A
phospho-AP2M1 (Thr156) = test: Western blot of phospho-AP2M1; assay type: cell-based, human; details: HEK293T cells, 2 hr, concentration-dependent
LRP6 surface levels = test: LRP6 surface staining by flow cytometry in HEK293T cells; assay type: cell-based, human; details: co-treatment with WNT3A, 8 hr
LRP6 = test: Western blot of endogenous LRP6 in HEK293T cells overexpressing AAK1; assay type: cell-based, human; details: FLAG-AAK1 overexpression, 100 nm, 6 hr
[3] = test system: β-catenin-activated Firefly luciferase reporter (BAR); test: BAR luciferase reporter assay in HT1080-B/R stable cells; assay type: cell-based, human; details: AAK1 siRNA 56 hr, then treatment 16 hr

Sequence of PIP5K1C (O60331 whole entry): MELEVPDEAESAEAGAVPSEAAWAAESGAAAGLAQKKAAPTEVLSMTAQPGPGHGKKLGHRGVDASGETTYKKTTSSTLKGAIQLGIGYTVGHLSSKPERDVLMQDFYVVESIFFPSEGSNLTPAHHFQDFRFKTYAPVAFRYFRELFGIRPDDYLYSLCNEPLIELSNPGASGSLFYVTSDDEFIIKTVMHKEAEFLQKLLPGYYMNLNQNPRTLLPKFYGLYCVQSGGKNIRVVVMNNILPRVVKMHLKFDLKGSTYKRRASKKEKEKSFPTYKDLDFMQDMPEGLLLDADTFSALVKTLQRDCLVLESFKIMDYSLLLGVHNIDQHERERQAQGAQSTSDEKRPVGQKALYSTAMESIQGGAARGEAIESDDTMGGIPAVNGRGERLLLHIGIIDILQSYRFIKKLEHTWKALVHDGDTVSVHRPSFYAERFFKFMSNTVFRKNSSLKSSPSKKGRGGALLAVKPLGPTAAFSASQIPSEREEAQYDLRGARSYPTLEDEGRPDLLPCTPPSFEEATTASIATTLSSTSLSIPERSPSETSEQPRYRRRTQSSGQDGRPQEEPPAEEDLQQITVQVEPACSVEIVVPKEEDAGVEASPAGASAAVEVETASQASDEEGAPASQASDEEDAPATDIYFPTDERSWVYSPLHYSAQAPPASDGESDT

IC50 (AAK1 [1]): > 1 µM
Ki (AAK1 [2]): 2 µM
IC50 (PIP5K1C): 3.6 µM
SMILES: CC(C)C(=O)Nc1n[nH]c2cc(-c3cccc(NS(=O)(=O)C4CC4)c3)ccc12 [34A, N-(6-(3-(cyclopropanesulfonamido)phenyl)-1H-indazol-3-yl)isobutyramide]

SMILES: Cc1c[nH]c(-c2cnc(NCCNc3ccc(C#N)cn3)nc2-c2ccc(Cl)cc2Cl)n1 [CHIR99021]
pAP2M1 levels (phospho-AP2M1 (T156)): did not result in elevated pAP2M1 levels

SMILES: CCN(CC)S(=O)(=O)Nc1cccc(-c2ccc3c(NC(=O)C4CC4)n[nH]c3c2)c1 [SGC-AAK1-1, N-(6-(3-((N,N-diethylsulfamoyl)amino)phenyl)-1H-indazol-3-yl)cyclopropanecarboxamide]
phosphorylation of the AP2M1 subunit at Thr156 (phospho-AP2M1 (Thr156)): inhibited the phosphorylation of the AP2M1 subunit at Thr156
rescue of the WNT3A-induced decrease of LRP6 surface levels (LRP6 surface levels): rescued

SMILES: CO/C1=C\C(C)=C\[C@@H](C)[C@@H](O)[C@@H](C)C/C(C)=C/C=C/[C@H](OC)[C@@H]([C@@H](C)[C@@H](O)[C@H](C)[C@@]2(O)C[C@@H](O)[C@H](C)[C@@H](C(C)C)O2)OC1=O [bafilomycin A1]
AAK1-driven downregulation of LRP6 (LRP6): rescued AAK1-driven downregulation of LRP6

SMILES: CN(C)CCCN1c2ccccc2Sc2ccc(Cl)cc21 [chlorpromazine]
WNT signaling (BAR) induced by AAK1 silencing [3]: suppressed WNT signaling induced by AAK1 silencing

— article PMC6315376 (Cell Reports, 2019)
